Results: US11786555B2, “RAR selective agonists in combination with immune modulators for cancer immunotherapy” (IO THERAPEUTICS, INC., priority 2017, dated 2023)

Legend:
[1] = system: H929 Luc+ cells with WT or Smo-KO stroma; test: subcutaneous xenograft model of MM-niche interactions, bioluminescence; format: in vivo, mouse
Description: FIG. 9 depicts bioluminescent images of mice showing tumor burden during 4 weeks of treatment with IRX (10 mg/kg), BTZ (0.5 mg/kg), or the combination. Anterior tumors consisted of a combination of MM.1S luciferase^+ cells and Smo^FI/FI BM stroma cells transduced with a control vector (WT BM stroma). Posterior tumors consisted of a combination of MM.1S luciferase^+ cells and Smo^FI/FI BM stroma cells transduced with Cre-recombinase (Smo KO BM stroma).
FIG. 10 depicts the fold change in bioluminescence (photons/second) of tumors during 4 weeks of treatment. The change in bioluminescence for each tumor […].
Mouse xenografts. 1×10^6 H929 Luc+ cells and 1×10^6 mouse BM stromal cells were resuspended in 100 μl […]®, diluted with RPMI (1:1), and injected subcutaneously into 16-week-old male NSG mice. After 4 days, treatment with BTZ (0.5 mg/kg i.p. twice weekly) and IRX (10 mg/kg i.p. daily) was initiated. Tumor burden was assessed by bioluminescence using the In Vivo Imaging System (PerkinElmer). For imaging, mice were exposed to 120 mg/kg D-luciferin via intraperitoneal injection […] before imaging and were anesthetized using isoflurane. Images were analyzed with Living Image Software, version 2.5 (PerkinElmer), and data were quantified as photons/second.
To study to what extent an RA-low environment created by the BM stroma and enhanced by MM cells via paracrine Hedgehog signaling contributes to BTZ resistance, a xenograft model of MM-niche interactions was developed. Each mouse carried 2 subcutaneous tumors consisting of H929 Luc+ cells and either WT (anterior tumors) or Smo-KO stroma (posterior tumors). Mice were treated with IRX (10 mg/kg i.p. daily), BTZ (0.5 mg/kg i.p. twice weekly), or a combination of both. The growth of tumors bearing WT or Smo-KO stroma was not different in untreated or IRX-treated groups (FIGS. 9 and 10). […] While some tumors in the treatment group receiving combined IRX and BTZ appeared to have regressed completely, even after anatomical study, this was not the case for all the mice in this group.

[2] = system: CD4+ T cells; test: in vivo T cell differentiation in mice (blood and spleen); design: species or system mouse; settings: 100 μg every other day for 10 days
Description: To expand on the finding above, the in vivo effects of a RARα agonist on T cell differentiation was evaluated in a mouse model. Mice were treated with 100 μg of compound IRX5183 or an equivalent volume of DMSO (vehicle control) every other day for 10 days. Lymphocytes from the blood and spleen were then isolated and FoxP3 expression in CD4^+ T cells was assessed.

[3] = system: RARα; test: transactivation assay, agonist activity; settings: RARα versus RARβ and RARγ, FIG. 1
Description: Transactivation assays employ expression plasmids encoding the full length receptors RARα, RARβ, and RARγ. Reporter plasmids containing the herpes virus thymidine kinase promoter and the appropriate retinoic acid receptor response element (RAREs) are positioned upstream of an open coding region encoding firefly luciferase.

[4] = molecular target: T1, RARγ (Homo sapiens, UniProt P13631); test: displacement assay, agonist binding affinity; settings: read-out: Binding Affinities for RARγ
T1 sequence (P13631 1-454): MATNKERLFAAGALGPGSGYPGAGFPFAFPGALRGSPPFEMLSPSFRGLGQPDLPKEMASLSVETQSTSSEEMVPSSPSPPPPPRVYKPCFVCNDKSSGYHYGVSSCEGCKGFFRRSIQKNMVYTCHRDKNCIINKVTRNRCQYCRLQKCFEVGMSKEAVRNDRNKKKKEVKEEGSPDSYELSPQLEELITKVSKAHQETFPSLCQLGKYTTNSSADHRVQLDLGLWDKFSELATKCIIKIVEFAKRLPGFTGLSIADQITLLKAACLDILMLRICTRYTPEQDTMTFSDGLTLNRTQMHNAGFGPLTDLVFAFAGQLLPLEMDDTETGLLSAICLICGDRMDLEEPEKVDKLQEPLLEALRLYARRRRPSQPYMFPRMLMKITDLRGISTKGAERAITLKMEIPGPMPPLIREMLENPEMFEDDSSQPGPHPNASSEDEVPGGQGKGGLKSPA
Description: (§1) Binding assays are performed using a classic competition assay format in which cloned receptor RAR molecules are first loaded with radiolabeled all-trans-retinoic acid […] and then the amount of radioactivity liberated with increasing concentration of test compound is measured.

[5] = molecular target: T2, RARβ (Homo sapiens, UniProt P10826); test: displacement assay, agonist binding affinity; settings: read-out: Binding Affinities for RARβ
T2 construct: cloned receptor RAR molecules are first loaded with radiolabeled all-trans-retinoic acid
T2 sequence (P10826 1-455): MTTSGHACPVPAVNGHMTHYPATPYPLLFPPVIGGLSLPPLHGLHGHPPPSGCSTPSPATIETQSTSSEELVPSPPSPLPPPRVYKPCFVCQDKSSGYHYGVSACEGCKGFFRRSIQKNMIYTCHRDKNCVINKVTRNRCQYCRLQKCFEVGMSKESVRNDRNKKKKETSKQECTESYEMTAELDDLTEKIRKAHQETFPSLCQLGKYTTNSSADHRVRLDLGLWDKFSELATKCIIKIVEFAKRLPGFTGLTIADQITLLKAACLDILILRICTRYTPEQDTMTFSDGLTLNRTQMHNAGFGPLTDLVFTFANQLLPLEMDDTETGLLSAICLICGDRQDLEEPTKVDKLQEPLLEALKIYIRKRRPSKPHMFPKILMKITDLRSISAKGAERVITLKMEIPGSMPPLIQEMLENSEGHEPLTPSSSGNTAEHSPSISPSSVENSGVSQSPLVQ
Description: as §1

[6] = system: naive CD4+ CD25− FoxP3− cells; test: in vitro Th17 cell differentiation; format: cell-based, mouse; settings: 0.1 nM
Description: To determine whether a RARα agonist could affect T cell differentiation, T cells were incubated with a RARα agonist to determine its effect on Foxp3 expression. Naive CD4^+ CD25^− FoxP3^− cells were purified from a Foxp3-GFP mouse using flow cytometry by sorting and isolating based upon a GFP^− phenotype. These cells were activated polyclonally with αCD3 in vitro in the presence of IL-2 and TGF-β. These cells were then cultured in media with various concentrations of compound IRX5183 (a RARα agonist) and the expression of FoxP3-GFP was analyzed by flow cytometry. The RARα agonist compound IRX5183 enhanced differentiation of immunosuppressive Treg cells and inhibited differentiation of inflammatory TH17 cells from naïve T cells in vitro (Table 2).

[7] = system: NB4 cells; test: CFU experiments, off and on stroma; format: cell-based; settings: 10^−7 M ATRA, IRX5183, or 10^−8 M AM80
Description: (§2) Data across three independent experiments.

[8] = system: Kasumi-1 cells; test: CFU experiments, off and on stroma; format: cell-based; settings: 10^−6 M ATRA, IRX5183, or 10^−7 M AM80
Description: as §2

[9] = system: OCI-AML3 cells; test: CFU experiments, off and on stroma; format: cell-based; settings: 10^−6 M ATRA, IRX5183, or 10^−7 M AM80
Description: as §2

CC1(C)CCC(C)(C)c2c1cc(C(=O)Nc1cc(F)c(C(=O)O)c(F)c1)c(O)c2Cl [IRX5183]
growth of tumors bearing WT versus Smo-KO stroma ([1]; IRX 10 mg/kg i.p. daily): not different
tumor response (bioluminescence) ([1]; combination of IRX and BTZ, WT or Smo-KO stroma): significant and equivalent response, regardless of the phenotype of the stromal compartment
Foxp3+ Expression ([2]; Blood): 4.3%
Foxp3+ Expression ([2]; Spleen): 25%
agonist activity (transactivation) [3]: specifically activates RARα
Kd [4]: > 10 µM
Kd [5]: > 10 µM
Th17 cell Percent Differentiation [6]: 32%
clonogenic growth (CFU), differentiation and elimination of AML [7]: decrease in clonogenic growth compared to control
clonogenic growth (CFU), differentiation and elimination of AML [8]: decrease in clonogenic growth compared to control
clonogenic growth (CFU), differentiation and elimination of AML [9]: decrease in clonogenic growth compared to control
